Experimental data as given in patent US20050222402A1, “Dna encoding rat bombesin receptor subtype-3 (brs-3) and uses thereof” (priority 2001, published 2005).
Substitutions are numbered along the chain they refer to. Non-standard residues stand in square brackets, D forms with d. Residues, ends and D or L forms follow the SMILES beside them. Nle = CCCC[C@H](N)C(=O)O; βAla = NCCC(=O)O

Key:
rat BRS-3 [1] = target: T1, rat BRS-3 (Rattus norvegicus, UniProt Q8K418); test: Calcium mobilization assay (FLIPR), transfected 293EBNA cells; type: cell-based
T1 construct: utilized to PCR amplify full-length rat BRS-3 cDNA; expressed in transfected cells; host or cells: 293EBNA cells, pE3 expression vector
T1 sequence (Q8K418 1-399): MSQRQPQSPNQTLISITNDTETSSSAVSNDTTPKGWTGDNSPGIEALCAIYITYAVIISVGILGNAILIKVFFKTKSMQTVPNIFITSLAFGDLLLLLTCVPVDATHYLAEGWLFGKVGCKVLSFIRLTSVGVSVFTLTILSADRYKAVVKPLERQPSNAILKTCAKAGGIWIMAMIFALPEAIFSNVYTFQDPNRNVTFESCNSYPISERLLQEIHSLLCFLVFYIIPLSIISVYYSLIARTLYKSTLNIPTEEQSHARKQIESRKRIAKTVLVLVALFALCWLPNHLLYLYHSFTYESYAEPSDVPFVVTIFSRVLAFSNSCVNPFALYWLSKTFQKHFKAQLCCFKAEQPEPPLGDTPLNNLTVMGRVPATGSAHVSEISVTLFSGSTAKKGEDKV
Experimental: (§1) Wild type and mutant BRS-3 constructs were transfected by using lipofectamine reagents (Life Technologies, Rockville, Md.) into 293EBNA cells (Invitrogen, Carlsbad, Calif.) which support episomal replication of plasmid containing Epstein Bar virus OriP segment. Stable cell lines were obtained by selection with 250 ug/ml hygromycin. The cells were maintained as monolayers in Dulbecco's modified Eagle's medium (Life Technologies, Rockville, Md.) supplemented with 10% fetal bovine serum and incubated at 37° C. in a humidified 5% CO2 incubator.
(§2) The functional activity of rat BRS-3 was also studied by measuring the agonist-induced calcium mobilization response using a Fluorescence Imaging Plate Reader (Molecular Devices, Sunnyvale, Calif.). Transfected 293EBNA cells were plated onto poly-D-lysine coated 96-well plates with black wall and clear bottom (Becton Dickinson, Franklin Lakes, N.J.). After 16-48 hr culture, the cells were loaded with 4 uM Fluo-3-AM fluorescent calcium-indicator dye (Molecular Probes, Eugene, OR) in assay buffer (Hank's balanced salts solution, 10 mM HEPES, pH7.4, 0.1% bovine serum albumin, 2.5 mM probenecid).
(§3) The changes in intracellular calcium concentration, as indicated by Fluo-3 fluorescence, were immediately measured by FLIPR. Maximal changes in fluorescence over base line were used to determine agonist response.
(§4) The EC50 values were mean±S.E. calculated from dose-response curves of 3-5 repeated experiments using FLIPR assays.

rat BRS-3 [2] = target: T1, rat BRS-3; test: Phosphatidylinositol hydrolysis functional assay; type: cell-based
Experimental: as §1
The functional properties of rat BRS-3 were characterized in transfected 293EBNA cells. The transfected 293EBNA cells were plated onto poly-D-lysine coated 12-well plates and incubated in the medium containing 2 uCi/ml [^3H]myo-inositol. The cells were labeled for 48 hrs, and subsequently incubated for 30 minutes in Hank's balanced salt solution containing 10 mM HEPES, 0.1% BSA and 10 mM LiCl.
Since a natural agonist of BRS-3 has not been found, members of the bombesin-like peptide family, including GRP, NMB, bombesin and dYB, were used to stimulate the transfected cells described above, in the same buffer, for 1 hr at 37° C. The reaction was stopped by removal of medium and addition of 10 mM formic acid. The inositol monophosphate fraction was then isolated by anion chromatography as described (Berridge et al. Biochem. J. 212: 473-482 (1983), which is hereby incorporated by reference).

[3] = system: human bombesin receptor subtypes, including human BRS-3; conditions: Pradhan et al. 1998; Ryan et al. 1998; cited from earlier work
RBB3-E3 = target: T2, RBB3-E3 (Rattus norvegicus, UniProt Q8K418, A302V/D306A/E299Q/E303D/P308H/S300T/V307M/V310I/V311F/Y298S); test: Radioligand binding assay with 125I-dYB; set-up: species or system rat/human; conditions: displacement of [125I]dYB by unlabeled dYB
T2 construct: expressed in transfected cells; host or cells: 293EBNA cells, pE3 expression vector
T2 sequence (Q8K418 1-399 Y298S/E299Q/S300T/A302V/E303D/D306A/V307M/P308H/V310I/V311F): T1 sequence (Q8K418 1-399) with Y298S, E299Q, S300T, A302V, E303D, D306A, V307M, P308H, V310I, V311F
Experimental: After removal of cell nuclei by a low speed centrifugation (1000×g) step, the cell membrane proteins were collected by centrifugation at 35,000×g for 20 minutes. The membrane protein concentration was determined by the Bradford method using BSA as standard.
After a 2 hr incubation at room temperature, the binding reaction was terminated by filtering through a GF/c filter-mate and washing the filter with binding buffer using Packard 96-well Topcount Harvester. The amount of radioligand bound to the receptor was determined by measurement of the radioactivity on the filter through liquid scintillation counting. The non-specific binding was defined as the binding in the presence of 1 uM unlabeled dYB.

human BRS-3 = target: T3, human BRS-3 (Homo sapiens, UniProt P32247); test: Calcium mobilization assay (FLIPR), transfected 293EBNA cells; type: cell-based
T3 construct: expressed in transfected cells; host or cells: 293EBNA cells, pE3 expression vector
T3 sequence (P32247 1-399): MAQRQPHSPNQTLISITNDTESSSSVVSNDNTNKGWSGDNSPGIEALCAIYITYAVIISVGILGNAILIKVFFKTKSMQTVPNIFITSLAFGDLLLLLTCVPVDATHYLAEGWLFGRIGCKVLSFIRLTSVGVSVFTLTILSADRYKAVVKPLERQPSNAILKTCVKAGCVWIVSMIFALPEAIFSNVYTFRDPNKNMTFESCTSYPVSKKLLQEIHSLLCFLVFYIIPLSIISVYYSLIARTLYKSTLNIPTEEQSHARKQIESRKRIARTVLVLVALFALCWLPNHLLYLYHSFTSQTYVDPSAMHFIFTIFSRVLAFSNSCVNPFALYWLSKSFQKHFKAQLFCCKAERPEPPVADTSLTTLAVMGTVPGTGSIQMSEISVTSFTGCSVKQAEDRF
Experimental: as §2, §3, §4

SMILES | difference in dYB potency between human and rodent BRS-3 (rat BRS-3 [1]) | lower affinity of rat BRS-3 to dYB than human BRS-3 (rat BRS-3 [1]) | increase in PI hydrolysis (rat BRS-3 [2]) [fold] | stimulation of phosphatidylinositol (PI) hydrolysis (inositol monophosphate production) (rat BRS-3 [2]) | affinity and potency reported [3] | EC50 (rat BRS-3 [1]) [nM] | Ki (RBB3-E3) [nM] | EC50 (human BRS-3) [nM]
CCCC[C@H](NC(=O)[C@H](Cc1ccccc1)NC(=O)[C@H](Cc1c[nH]cn1)NC(=O)CCNC(=O)[C@@H](NC(=O)[C@H](C)NC(=O)[C@H](Cc1c[nH]c2ccccc12)NC(=O)[C@H](CCC(N)=O)NC(=O)[C@H](N)Cc1ccc(O)cc1)C(C)C)C(N)=O [dYB, [D-Tyr6-betaAla11-Phe13-Nle14] bombesin (6-14)] (H-[dY]QWAV[βAla]HF[Nle]-NH2) | approximately 1000 fold | approximately 1000 fold | 9 | significant increase | nanomolar high affinity and high potency | – | – | –
CCCC[C@H](NC(=O)[C@H](Cc1ccccc1)NC(=O)[C@H](Cc1cnc[nH]1)NC(=O)CCNC(=O)[C@@H](NC(=O)[C@H](C)NC(=O)[C@H](Cc1c[nH]c2ccccc12)NC(=O)[C@H](CCC(N)=O)NC(=O)[C@H](N)Cc1ccc(O)cc1)C(C)C)C(N)=O [dYB, [D-Tyr6-betaAla11-Phe13-Nle14] bombesin (6-14)] (H-[dY]QWAV[βAla]HF[Nle]-NH2) | – | – | – | – | – | 2200 ± 500 | 1.2 ± 0.7 | 1.2 ± 0.4
